In patent US9193777B2, “Method of treating cardiac arrhythmia with long acting atrial natriuretic peptide(LA-ANP)” (Mayo Foundation for Medical Education and Research, priority 2009, dated 2015):
Marks after values point to notes of the source that are not given here.

Experiments:
[1] = system: isolated perfused hearts obtained from male rats; assay: Isolated heart model: atrial monophasic action potential and effective refractory period; settings: isolated rat heart; for effect on MAP duration (in words): 40-minute perfusion; for decrease in MAPD90 versus baseline: mANP n=8, ANP n=10
Protocol: Atrial monophasic action potentials and effective refractory periods were measured in isolated perfused hearts obtained from male rats. Rapid cardiectomy was performed in male rats weighing 300-350 g, under general anesthesia with pentobarbital. The hearts were retrogradely perfused via the aorta at constant pressure and temperature (100 mmHg and 37° C.) with Kreb's-Henseleit buffer filtered at 0.22 μm and bubbled with 95% O2/5% CO2 at 37° C. and pH 7.4. Coronary perfusion flow was monitored constantly (T402, Transonic Systems, Ithaca, N.Y.) and remained >10 ml/min.
After establishment of a stable perfused heart preparation, the posterior atria were cut away to expose the left and right atrial endocardium and the atrioventricular (AV) node was mechanically crushed, resulting in AV dissociation. The right atrium was paced (Bloom Electrophysiology, via Fischer Imaging, Denver, Colo.) at a cycle length of 150 msec with a 0.1 msec pulse width using a bipolar platinum-tipped electrode (NuMED, Inc., Hopkinton, N.Y.), while the right ventricle was paced at a cycle length of 500 msec. A monophasic action potential (MAP) probe (Harvard Apparatus, Holliston, Mass.) was maintained in a single position on the anterior left atrial endocardium. Amplified signals (IsoDam, World Precision Instruments, Sarasota, Fla.) were digitally acquired at 2 kHz (USB-6210 and LabVIEW 8.2, National Instruments, Austin, Tex.). The MAP duration was measured at 90% repolarization on atrial beats without far field ventricular interference. The effective refractory period (ERP) was measured by delivering extrastimuli via the pacing catheter at decremental coupling intervals following at least 8 beats of a 150 ms cycle-length drive train. […] In separate heart preparations, the perfusion buffer was supplemented after baseline data acquisition with 100 nM of either ANP or mANP to assess the effect of both the wild-type and mutant hormones on MAP duration and ERP.
A two-sided t-test was used for comparison of data, assuming equal variance. Data are expressed as mean±S.E., and results were considered significant at p<0.05.

[2] = system: 10 week old male FVB mice; assay: Programmed electrical stimulation of the ventricles in anesthetized mice; format: in vivo, mouse; settings: for ERP versus 30 minute saline group (in words) / ERP (ventricular effective refractory period) / Heart rate / PR interval / QRST interval: anesthetized mice; for ERP versus 30 minute saline group (in words): 30 minute treatment, ANOVA; for ERP (ventricular effective refractory period) / Heart rate / PR interval / QRST interval: after 30 minute peritoneal infusion 33 pmol/kg/min following 330 pmol/kg bolus, n=3; for VT score: sum over three mice, after 30 minute infusion, higher score = greater resistance to arrhythmia induction
Protocol: Programmed electrical stimulation of the ventricles was performed across the diaphragm via bipolar electrode catheter placed through an abdominal incision in 10 week old male FVB mice anesthetized with inhaled isoflurane, and was continuously monitored by electrocardiogram. Electrophysiologic parameters were analyzed at baseline and after a 30 minute peritoneal infusion of saline vs. 33 pmol/kg/min ANP or mANP, following a 330 pmol/kg bolus. […] The ventricular tachycardia (VT) score was obtained by scoring 1 point for induction of sustained VT with a single extrastimulus, 2 points for induction with double extrastimuli, and 3 points for failure to induce with single or double extrastimuli. Nonsustained VT (less than 1 second) was not scored. The score for each of three mice in a group was added. A higher score indicates greater resistance to arrhythmia induction.

[3] = 100 nM, 40 minutes perfusion, mean±S.E.

Row | Compound | effect on MAP duration (in words) ([1]; 100 nM) | decrease in MAPD90 versus baseline [1, 3] [ms] | ERP versus 30 minute saline group (in words) [2] | ERP (ventricular effective refractory period) [2] | Heart rate [2] | PR interval [2] | QRST interval [2] | VT score [2] | reduction in effective refractory period (ERP) versus baseline ([1]; 100 nM, 40 minutes perfusion, mean±S.E., mANP n=7, ANP n=6) [ms] | effect on ERP (in words) ([1]; 100 nM, compared to wild-type ANP) | MAP duration at 90% repolarization (MAPD90), representative MAP ([1]; after 40-minute perfusion with 100 nM peptide, shortened from 47 msec at baseline) [ms]
1 | CC[C@H](C)[C@@H]1NC(=O)[C@H](CCCNC(=N)N)NC(=O)[C@H](CC(=O)O)NC(=O)[C@H](CCSC)NC(=O)[C@H](CCCNC(=N)N)NC(=O)CNC(=O)CNC(=O)[C@H](Cc2ccccc2)NC(=O)[C@@H](NC(=O)[C@H](CO)NC(=O)[C@H](CO)NC(=O)[C@H](CCCNC(=N)N)NC(=O)[C@H](CCCNC(=N)N)NC(=O)[C@H](CC(C)C)NC(=O)[C@@H](N)CO)CSSC[C@@H](C(=O)N[C@@H](CC(N)=O)C(=O)N[C@@H](CO)C(=O)N[C@@H](Cc2ccccc2)C(=O)N[C@@H](CCCNC(=N)N)C(=O)N[C@@H](Cc2ccc(O)cc2)C(=O)O)NC(=O)CNC(=O)[C@H](CC(C)C)NC(=O)CNC(=O)[C@H](CO)NC(=O)[C@H](CCC(N)=O)NC(=O)[C@H](C)NC(=O)CNC1=O [ANP, atrial natriuretic peptide] | not significantly changed | 0.7 ± 1.7 | not a significant difference | 28 + 2 msec | 255 + 8 min^−1 | 73 + 4 msec | 23 + 1 msec | 3 | – | – | –
2 | mANP: Full-length 40-amino acid mutant ANP: normal 28-amino acid mature peptide plus an anomalous carboxyl-terminus of 12 residues (SLRRSSCFGGRMDRIGAQSGLGCNSFRYRITAREDKQGWA; listed as Homo sapiens) | significant shortening | 9 ± 2 | significantly shorter | 19 + 4* msec | 243 + 16 min^−1 | 76 + 4 msec | 26 + 1 msec | 5 | 7.1 ± 2.4 | significant shortening | 41
